According to article PMC6211260 (Journal of Enzyme Inhibition and Medicinal Chemistry, 2018):

What was measured:
[1] = system: PC-3 prostate cancer cell line; test: NCI five-dose testing; assay type: cell-based; details: PC-3
Protocol: (§1) Screening against the cancer cell lines was carried out at the National Cancer Institute (NCI, Bethesda, Maryland, USA) applying the standard protocol of the NCI[22].

[2] = system: HOP-92 non-small cell lung cancer cell line; test: NCI five-dose testing; assay type: cell-based; details: HOP-92
Protocol: as §1

NCI-60 cell line panel = test: NCI-60 single-dose (10 µM) antiproliferative screening, mean over panel; assay type: cell-based; details: single-dose 10 µM
Protocol: as §1
(§2) The final target compounds were submitted to the National Cancer Institute (NCI), Maryland, USA[23]. Thirty-one compounds were selected to be tested over 60 cell lines at single dose 10 µM.

Plasma stability = assay type: in vitro ADME; details: 37 °C, 10 µM
Protocol: About 10 µM of compound 2l was mixed with human plasma and rat plasma and the mixture was shaked at 37 °C for 30 min and 120 min. After each time interval, acetonitrile was added and the mixture was centrifugated (14000 rpm, 4 °C). The supernatant was injected into the LC-MS to detect the remaining amount of compound 2l.

[3] = system: SK-MEL-5 melanoma cell line; test: NCI-60 single-dose screening; assay type: cell-based; details: 10 µM
Protocol: as §1, §2

[4] = system: HCC-2998 colon cancer cell line; test: NCI-60 single-dose screening; assay type: cell-based; details: 10 µM
Protocol: as §1, §2

[5] = system: SF-295 CNS cancer cell line; test: NCI-60 single-dose screening; assay type: cell-based; details: 10 µM
Protocol: as §1, §2

[6] = system: Colo 205 colon cancer cell line; test: NCI-60 single-dose screening; assay type: cell-based; details: 10 µM
Protocol: as §1, §2

[7] = system: LOX IMVI melanoma cell line; test: NCI-60 single-dose screening; assay type: cell-based; details: 10 µM
Protocol: as §1, §2

[8] = system: SK-MEL-28 melanoma cell line; test: NCI-60 single-dose screening; assay type: cell-based; details: 10 µM
Protocol: as §1, §2

[9] = In vivo pharmacokinetic assay; details: SD rats, 10 mg/kg, mean, N = 3
Protocol: Serum samples were collected each 30 min. The blood concentration of the test compounds was determined by LC-MS/MS (Agilent 1290 infinity II series equipped with on-line degasser, binary pump, thermostatted well-plate autosampler and column compartment, Waters Atlantis® HSS T3 (2.1 × 100 mm, 1.9 µm) column, and mobile phase linear gradient from 95% A (0.1% formic acid in water) /5% B (0.1% formic acid in acetonitrile) to 5% A/95% B, 6500+ QTRAP LC-MS/MS/MS system, Turbo Spray Ion Drive as ion source, and Carbamazepine as internal standard. Pharmacokinetic parameters were obtained by non-compartmental analysis of the plasma concentration–time profiles using KineticaTM 4.4.1 (Thermo Fisher Scientific, Inc., Woburn, MA, USA).

hERG = molecular target: T1, hERG (Homo sapiens, UniProt Q12809); test: hERG binding assay (hERG Fluorescence Polarization Assay)
T1 construct: purchased Invitrogen PV5365
T1 sequence (Q12809 whole entry): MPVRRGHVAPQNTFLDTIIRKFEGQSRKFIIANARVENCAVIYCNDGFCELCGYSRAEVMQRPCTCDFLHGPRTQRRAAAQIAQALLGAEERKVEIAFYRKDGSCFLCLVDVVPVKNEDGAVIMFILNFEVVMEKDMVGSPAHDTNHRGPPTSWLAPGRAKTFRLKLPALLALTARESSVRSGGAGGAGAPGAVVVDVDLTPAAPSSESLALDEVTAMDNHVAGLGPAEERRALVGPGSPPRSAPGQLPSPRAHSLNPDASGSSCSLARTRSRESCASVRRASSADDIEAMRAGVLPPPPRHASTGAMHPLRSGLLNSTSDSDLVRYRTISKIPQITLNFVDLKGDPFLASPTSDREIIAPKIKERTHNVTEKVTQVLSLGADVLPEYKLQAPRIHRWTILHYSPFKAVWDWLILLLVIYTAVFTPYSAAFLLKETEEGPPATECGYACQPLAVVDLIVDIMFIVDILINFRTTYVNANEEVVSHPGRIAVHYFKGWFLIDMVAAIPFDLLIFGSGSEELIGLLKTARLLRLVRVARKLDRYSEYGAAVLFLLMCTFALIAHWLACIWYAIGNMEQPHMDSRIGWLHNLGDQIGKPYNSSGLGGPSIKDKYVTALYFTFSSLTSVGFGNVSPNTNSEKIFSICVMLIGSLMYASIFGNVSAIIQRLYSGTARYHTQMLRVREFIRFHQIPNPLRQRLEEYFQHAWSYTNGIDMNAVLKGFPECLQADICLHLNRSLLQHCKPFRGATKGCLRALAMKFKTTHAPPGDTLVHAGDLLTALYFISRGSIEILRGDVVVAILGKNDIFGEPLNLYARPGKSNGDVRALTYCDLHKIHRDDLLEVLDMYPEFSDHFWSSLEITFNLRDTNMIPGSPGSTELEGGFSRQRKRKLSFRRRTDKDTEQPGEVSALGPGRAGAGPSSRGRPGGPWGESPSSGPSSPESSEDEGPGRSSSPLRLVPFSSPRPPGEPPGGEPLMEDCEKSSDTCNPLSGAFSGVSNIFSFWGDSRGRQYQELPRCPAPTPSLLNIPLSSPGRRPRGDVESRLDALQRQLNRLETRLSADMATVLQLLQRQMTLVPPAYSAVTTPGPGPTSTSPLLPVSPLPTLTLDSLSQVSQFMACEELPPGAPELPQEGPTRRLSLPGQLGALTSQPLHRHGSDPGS
Protocol: hERG binding assay was performed using hERG Fluorescence Polarization Assay (Invitrogen: PV5365) assay kit and Synergy Neo (Biotek) and standard procedures were applied.

colon cancer cell lines = test: NCI five-dose testing, subpanel mean; assay type: cell-based; details: subpanel III: colon cancer
Protocol: as §1

[10] = system: ovarian cancer cell lines; test: NCI five-dose testing, subpanel mean; assay type: cell-based; details: subpanel VI: ovarian cancer
Protocol: as §1

melanoma cell lines = test: NCI five-dose testing, subpanel mean; assay type: cell-based; details: subpanel V: melanoma
Protocol: as §1

breast cancer cell lines = test: NCI five-dose testing, subpanel mean; assay type: cell-based; details: subpanel IX: breast cancer
Protocol: as §1

[11] = system: prostate cancer cell lines; test: NCI five-dose testing, subpanel mean; assay type: cell-based; details: subpanel VIII: prostate cancer
Protocol: as §1

Leukaemia cell lines = test: NCI five-dose testing, subpanel mean; assay type: cell-based; details: subpanel I: Leukaemia
Protocol: as §1

CNS cancer cell lines = test: NCI five-dose testing, subpanel mean; assay type: cell-based; details: subpanel IV: CNS cancer
Protocol: as §1

[12] = system: non-small cell lung cancer cell lines; test: NCI five-dose testing, subpanel mean; assay type: cell-based; details: subpanel II: non-small cell lung cancer
Protocol: as §1

renal cancer cell lines = test: NCI five-dose testing, subpanel mean; assay type: cell-based; details: subpanel VII: renal cancer
Protocol: as §1

[13] = read-out: TGI (total growth inhibition concentration)

In the case of `O=S(=O)(NCCCNc1cc(-c2cn(-c3ccccc3)nc2-c2cccc(O)c2)ccn1)c1ccc(Cl)cc1` [Compound 2l, 4-Chloro-N-(3-((4-(3-(3-hydroxyphenyl)-1-phenyl-1H-pyrazol-4-yl)pyridin-2-yl)amino)propyl) benzenesulfonamide], the “LD50 (lethal dose 50)” value [1] is reported as greater than 100 µM, the IC50 ([1]; read-out: IC50) is reported as 1740 nM and the IC (TGI) [1, 13] is reported as 6100 nM. For the same compound, the IC50 [2] was 1520 nM, the “LD50 (lethal dose 50)” value [2] was 93.2 µM and the IC (TGI) [2, 13] was 4700 nM. For the same compound, the Mean % inhibition (NCI-60 cell line panel; 60-cancer cell line screening) was 97.80%, the “number of cell lines with more than 100% inhibition” value (NCI-60 cell line panel; NCI-60 panel) was 24 and the “Plasma stability, remaining unchanged” value (Plasma stability; Human plasma, 30 min) was 100%. For the same compound, the “Plasma stability, remaining unchanged” value (Plasma stability; Human plasma, 30 min, listed as 2 l) was 100%, the “Plasma stability, remaining unchanged” value (Plasma stability; Human plasma, 120 min) was 95.3% and the “Plasma stability, remaining unchanged” value (Plasma stability; Human plasma, 120 min, listed as 2 l) was 95.3%. For the same compound, the “Plasma stability, remaining unchanged” value (Plasma stability; Rat plasma, 30 min) was 100%, the “Plasma stability, remaining unchanged” value (Plasma stability; Rat plasma, 120 min) was 100% and the per cent inhibition [3] was 156.35%. It also gave a per cent inhibition [4] of 162.39%, a per cent inhibition [5] of 155.19% and a per cent inhibition [6] of 170.28%. For the same compound, the per cent inhibition [7] was 129.50%, the per cent inhibition [8] was 136.19% and the AUCinf ([9]; IV) was 1478.2 ng·h/mL. It also gave an AUClast ([9]; IV) of 1471.6 ng·h/mL, a CL ([9]; IV) of 113 mL/min/kg and a t1/2 ([9]; IV) of 5.8 h. The AUCinf ([9]; PO) was 142.1 ng·h/mL, the AUClast ([9]; PO) was 136.0 ng·h/mL and the Cmax ([9]; PO) was 36.6 ng/mL. The “F (oral bioavailability)” value ([9]; PO) was 9.2%, the Tmax ([9]; PO) was 0.5 h and the t1/2 ([9]; PO) was 6.1 h. For the same compound, the IC50 (hERG) was 8280 nM, the IC50 (colon cancer cell lines) was 1510 nM and the IC50 [10] was 2090 nM. For the same compound, the IC50 (melanoma cell lines) was 1680 nM, the IC50 (breast cancer cell lines) was 1580 nM and the IC50 [11] was 2280 nM. For the same compound, the IC50 (Leukaemia cell lines) was 1440 nM, the IC50 (CNS cancer cell lines) was 1650 nM and the IC50 [12] was 2320 nM. It also gave an IC50 (renal cancer cell lines) of 2060 nM.
